Columns and labels:
Assay in all cases: Bliss excess, mean over the matrix (fraction); higher = more synergy
CAL-78 (Chondrosarcoma) = test system: CAL-78 (Chondrosarcoma)
Outline: (§1)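 Cell lines in DMEM/F12 or RPMI with 10% FBS were plated in 1536-well plates, held 24 hours at 37°C, 5% CO2, then given two-drug dose matrices for 72 hours (DMSO typically 0.2%). Viability was read by CellTiter-Glo 2.0 luminescence and scaled as inhibition from 0 (vehicle wells) to 1 (blank wells). Combination Emax is the second-highest inhibition in the matrix; Bliss excess is observed combination effect minus expected EA + EB − EA·EB, EA and EB being single-agent effects.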

[1] = test system: COR-L23 (Non-Small Cell Lung Carcinoma)
Outline: as §1

[2] = test system: DMS-273 (Small Cell Lung Carcinoma)
Outline: as §1

[3] = test system: DOV13 (Ovarian Carcinoma)
Outline: as §1

DSH1 (Bladder Carcinoma) = test system: DSH1 (Bladder Carcinoma)
Outline: as §1

ES7 (Ewing's Sarcoma) = test system: ES7 (Ewing's Sarcoma)
Outline: as §1

[4] = test system: HCC2157 (Breast Carcinoma)
Outline: as §1

IGR-1 (Melanoma) = test system: IGR-1 (Melanoma)
Outline: as §1

[5] = test system: JiyoyeP-2003 (Burkitt's Lymphoma)
Outline: as §1

[6] = test system: LS-513 (Colorectal Carcinoma)
Outline: as §1

[7] = test system: MDA-MB-157 (Breast Carcinoma)
Outline: as §1

[8] = test system: MDA-MB-231 (Breast Carcinoma)
Outline: as §1

[9] = test system: MFH-ino (Other Solid Carcinomas)
Outline: as §1

[10] = test system: NCI-H1781 (Lung Adenocarcinoma)
Outline: as §1

[11] = test system: NCI-H1793 (Lung Adenocarcinoma)
Outline: as §1

NCI-H2369 (Mesothelioma) = test system: NCI-H2369 (Mesothelioma)
Outline: as §1

SK-N-FI (Neuroblastoma) = test system: SK-N-FI (Neuroblastoma)
Outline: as §1

[12] = test system: SW1088 (Low Grade Glioma)
Outline: as §1

[13] = test system: SW780 (Bladder Carcinoma)
Outline: as §1

[14] = test system: TE-5 (Esophageal Squamous Cell Carcinoma)
Outline: as §1

SMILES	Bliss excess (CAL-78 (Chondrosarcoma))	Bliss excess [1]	Bliss excess [2]	Bliss excess [3]	Bliss excess (DSH1 (Bladder Carcinoma))	Bliss excess (ES7 (Ewing's Sarcoma))	Bliss excess [4]	Bliss excess (IGR-1 (Melanoma))	Bliss excess [5]	Bliss excess [6]	Bliss excess [7]	Bliss excess [8]	Bliss excess [9]	Bliss excess [10]	Bliss excess [11]	Bliss excess (NCI-H2369 (Mesothelioma))	Bliss excess (SK-N-FI (Neuroblastoma))	Bliss excess [12]	Bliss excess [13]	Bliss excess [14]
COc1nnc2ccc(N3CCC(c4ccc(OCCN5CCN(C)C(=O)[C@H]5C)cc4)CC3)nn12 [AZD5153] + CC1(C)CCC(CN2CCN(c3ccc(C(=O)NS(=O)(=O)c4ccc(NCC5CCOCC5)c([N+](=O)[O-])c4)c(Oc4cnc5[nH]ccc5c4)c3)CC2)=C(c2ccc(Cl)cc2)C1 [Venetoclax] (first compound max 1 µM, 7x7, partner max 1 µM)	-0.0999	-0.0504	-0.0627	-0.0751	-0.0524	-0.0694	0.0328	-0.0221	-0.0302	-0.0442	-0.0454	-0.0755	-0.0608	-0.0599	-0.0104	-0.0641	-0.0581	-0.0439	-0.0071	-0.0087
CC1(C)CCC(CN2CCN(c3ccc(C(=O)NS(=O)(=O)c4ccc(NCC5CCOCC5)c([N+](=O)[O-])c4)c(Oc4cnc5[nH]ccc5c4)c3)CC2)=C(c2ccc(Cl)cc2)C1 [Venetoclax] + Cn1cnc2c(F)c(Nc3ccc(Br)cc3Cl)c(C(=O)NOCCO)cc21 [Selumetinib] (first compound max 1 µM, 7x7, partner max 3 µM)	-0.0619	-0.0182	-0.0184	-0.0151	0.0225	-0.0127	-0.006	-0.0405	0.0014	-0.0159	0.0208	-0.0277	-0.0288	-0.0437	-0.0096	-0.0308	0.0374	-0.0407	-0.0367	-0.0575
C[C@@H](c1ccc2nccn2c1)n1nnc2ncc(-c3cnn(C)c3)nc21 [Savolitinib] + CC1(C)CCC(CN2CCN(c3ccc(C(=O)NS(=O)(=O)c4ccc(NCC5CCOCC5)c([N+](=O)[O-])c4)c(Oc4cnc5[nH]ccc5c4)c3)CC2)=C(c2ccc(Cl)cc2)C1 [Venetoclax] (first compound max 1 µM, 7x7, partner max 1 µM)	-0.0872	-0.0457	-0.0398	-0.0552	0	-0.0354	0.0068	-0.0583	-0.0438	-0.0599	-0.0411	-0.0599	-0.0657	-0.0702	-0.0566	-0.058	-0.0537	-0.0115	-0.0671	-0.0557
Cc1c2c(nn1C)CSCc1cc(n(C)n1)CSc1cc(c3ccccc3c1)OCCCc1c(C(=O)O)n(C)c3c-2c(Cl)ccc13 [AZD5991] + Cn1cnc2c(F)c(Nc3ccc(Br)cc3Cl)c(C(=O)NOCCO)cc21 [Selumetinib] (first compound max 1 µM, 7x7, partner max 3 µM)	-0.0288	-0.0051	-0.0137	0.0216	-0.0881	0.0375	-0.0137	0.0239	0.0039	-0.0242	-0.0098	0.0135	-0.0311	-0.0165	0.0133	0.0081	-0.0042	-0.0543	0.0631	-0.0146
Cc1c2c(nn1C)CSCc1cc(n(C)n1)CSc1cc(c3ccccc3c1)OCCCc1c(C(=O)O)n(C)c3c-2c(Cl)ccc13 [AZD5991] + C[C@@H]1COCCN1C2=NC(=NC(=C2)C3(CC3)[S@](=N)(=O)C)C4=C5C=CNC5=NC=C4 [AZD6738] (first compound max 1 µM, 7x7, partner max 10 µM)	0.0335	-0.0121	0.0196	0.0005	0.0241	0.0521	0.0155	0.105	0.0159	0.0383	-0.0076	0.0132	0.0319	0.0103	0.0097	0.0442	-0.0554	-0.0048	0.0324	-0.0294
NC1(C(=O)N[C@@H](CCO)c2ccc(Cl)cc2)CCN(c2ncnc3[nH]ccc23)CC1 [Capivasertib] + CCN(CCO)CCCOc1ccc2c(Nc3cc(CC(=O)Nc4cccc(F)c4)[nH]n3)ncnc2c1 [AZD2811] (first compound max 10 µM, 7x7, partner max 1 µM)	0.024	-0.0446	-0.0015	-0.0392	-0.0694	-0.0354	-0.0286	0.0077	-0.0303	-0.0771	0.0354	-0.0154	-0.0542	-0.0433	-0.0515	-0.0446	-0.0265	-0.0088	0.015	-0.0283
COc1nnc2ccc(N3CCC(c4ccc(OCCN5CCN(C)C(=O)[C@H]5C)cc4)CC3)nn12 [AZD5153] + Cn1cnc2c(F)c(Nc3ccc(Br)cc3Cl)c(C(=O)NOCCO)cc21 [Selumetinib] (first compound max 1 µM, 7x7, partner max 10 µM)	-0.0315	-0.0516	-0.0661	-0.0263	-0.0458	-0.0502	-0.0038	0.0544	-0.0117	-0.0213	0.0292	0.0516	-0.0031	-0.0085	0.0212	-0.048	-0.0386	0.029	-0.058	0.0184
Cc1cc2ncnn2cc1Nc1ncc2c(n1)n(C1CCOCC1)c(=O)n2C [AZD7648] + CN(C)CCCOc1ccc(-c2ccc3ncc4c(c3c2)n(C2CCOCC2)c(=O)n4C)cn1 [AZD0156] (first compound max 10 µM, 7x7, partner max 1 µM)	-0.0091	-0.0212	0.05	-0.0169	0.0171	0.0271	0.0081	-0.0223	-0.0067	-0.021	0.0406	0.0146	-0.0299	0.0151	0.0044	0.0327	0.0029	-0.0698	-0.0069	-0.0362
C[C@@H]1COCCN1c1cc(C2([S@](C)(=N)=O)CC2)nc(-c2ccnc3[nH]ccc23)n1 [AZD6738] + O=C(c1cc(Cc2n[nH]c(=O)c3ccccc23)ccc1F)N1CCN(C(=O)C2CC2)CC1 [Olaparib] (first compound max 10 µM, 7x7, partner max 10 µM)	0.0285	-0.034	-0.0473	0.0127	-0.0205	0.0469	0.0441	0.0059	0.0005	0.0419	-0.0453	-0.0335	0.0189	-0.0218	-0.0153	-0.0344	-0.0581	0.0087	-0.0047	-0.021
CC1(C)CCC(CN2CCN(c3ccc(C(=O)NS(=O)(=O)c4ccc(NCC5CCOCC5)c([N+](=O)[O-])c4)c(Oc4cnc5[nH]ccc5c4)c3)CC2)=C(c2ccc(Cl)cc2)C1 [Venetoclax] + C=CCn1c(=O)c2cnc(Nc3ccc(N4CCN(C)CC4)cc3)nc2n1-c1cccc(C(C)(C)O)n1 [AZD1775] (first compound max 1 µM, partner max 1 µM)	-0.0817	-0.0609	-0.0711	0.131	-0.0476	0.119	-0.0554	0.0147	-0.0263	-0.0581	0.0679	-0.0666	-0.0222	-0.0767	-0.0007	-0.0134	-0.0076	-0.003	-0.0244	-0.0412
Cc1cc2ncnn2cc1Nc1ncc2c(n1)n(C1CCOCC1)c(=O)n2C [AZD7648] + O=C(c1cc(Cc2n[nH]c(=O)c3ccccc23)ccc1F)N1CCN(C(=O)C2CC2)CC1 [Olaparib] (first compound max 10 µM, 7x7, partner max 10 µM)	-0.0726	0.0328	0.0268	-0.0556	0.0328	-0.0569	0.0073	-0.0032	0.0339	-0.0387	-0.0251	-0.0752	-0.0705	-0.0204	-0.0616	-0.05	-0.0292	-0.067	-0.0289	-0.0431
COc1nnc2ccc(N3CCC(c4ccc(OCCN5CCN(C)C(=O)[C@H]5C)cc4)CC3)nn12 [AZD5153] + C[C@@H]1COCCN1C2=NC(=NC(=C2)C3(CC3)[S@](=N)(=O)C)C4=C5C=CNC5=NC=C4 [AZD6738] (first compound max 1 µM, 7x7, partner max 10 µM)	0.0093	-0.0016	0.0044	-0.0623	0.0321	-0.0245	-0.0086	0.0759	-0.047	-0.0211	-0.0138	-0.0477	-0.0801	0.0033	0.0127	0.0409	0.0549	0.0059	-0.0052	-0.0316
CN(CCO)CC[C@H](CSc1ccccc1)Nc1ccc(S(=O)(=O)NC(=O)c2ccc(N3CCC([C@@H](O)c4ccccc4-c4ccc(Cl)cc4)CC3)cc2)cc1S(=O)(=O)C(F)(F)F [AZD4320] + Cc1cc2ncnn2cc1Nc1ncc2c(n1)n(C1CCOCC1)c(=O)n2C [AZD7648] (first compound max 1 µM, 7x7, partner max 10 µM)	-0.0388	-0.0348	0.0127	-0.0588	-0.0266	-0.0455	0.0378	-0.0137	-0.0322	-0.0543	-0.0225	-0.0082	-0.0545	-0.0388	0.0025	-0.0411	-0.0203	-0.0184	-0.0578	-0.033
COc1cccc2c1C(=O)c1c(O)c3c(c(O)c1C2=O)C[C@@](O)(C(=O)CO)C[C@@H]3O[C@H]1C[C@H](N)[C@H](O)[C@H](C)O1 [Doxorubicin] + Cc1cc2ncnn2cc1Nc1ncc2c(n1)n(C1CCOCC1)c(=O)n2C [AZD7648] (first compound max 1 µM, 7x7, partner max 10 µM)	0.0132	0.0351	0.0727	0.0218	0.0268	0.0997	0.112	0.0132	0.094	0.057	0.0033	-0.0124	0.0216	0.0578	0.0117	0.029	-0.0158	0.0309	0.0082	-0.0229

— the supplement of paper PMC11061612
